Experimental data as given in patent publication US20200270265A1, “TETRACYCLIC PYRIDONE COMPOUNDS AS ANTIVIRALS” (Novartis AG, priority 2016, published 2020).

Key:
Assay type in all cases: in vivo
[1] = Pharmacokinetics in rat (iv and PO); details: iv 1.0 mg/kg, PO 2.0 mg/kg
[2] = Pharmacokinetics in dog (iv and PO); details: iv 0.5 mg/kg, PO 1.0 mg/kg
[3] = Pharmacokinetics in mice (iv and PO); details: iv 1.0 mg/kg, PO 2.0 mg/kg

Oral BA [1] | T1/2term [1] | Oral BA [2] | T1/2term [2] | Oral BA [3] | T1/2term [3] | SMILES
57 % F | 9.2 h | 96 % F | 7.2 h | 87 % F | 3.8 h | COCCCOc1cc2c(cc1OC)-c1c(F)c(=O)c(C(=O)O)cn1[C@H]1[C@@H]2CCC1(C)C [Compound 3.1, (3aS,12bR)-8-fluoro-10-methoxy-11-(3-methoxypropoxy)-3,3-dimethyl-7-oxo-1,2,3,3a,7,12b-hexahydrocyclopenta[c]pyrido[2,1-a]isoquinoline-6-carboxylic acid]
65 % F | 1.2 h | 94 % F |  | 100 % F | 1.8 h | COCCCOc1cc2c(cc1OC)-c1cc(=O)c(C(=O)O)cn1[C@H]1[C@@H]2OCC1(C)C [Compound 4.1, (3aR,12bR)-10-methoxy-11-(3-methoxypropoxy)-3,3-dimethyl-7-oxo-3,3a,7,12b-tetrahydro-2H-furo[3,2-c]pyrido[2,1-a]isoquinoline-6-carboxylic acid]
97 % F | 2.4 h | 93 % F | 5.9 h | 59 % F | 1.6 h | COCCCOc1cc2c(cc1OC)-c1cc(=O)c(C(=O)O)cn1[C@H]1[C@@H]2CCC1(C)C [Compound 1.1, (3aS,12bR)-10-methoxy-11-(3-methoxypropoxy)-3,3-dimethyl-7-oxo-1,2,3,3a,7,12b-hexahydrocyclopenta[c]pyrido[2,1-a]isoquinoline-6-carboxylic acid]
